# According to patent US20200330399A1, “COMBINATION THERAPY COMPRISING A POLYUNSATURATED KETONE AND A CORTICOSTEROID” (priority 2016, published 2020):
# Tested on: skin keratinocyte cell line HaCaT
# Test: Resazurin assay of HaCaT keratinocyte cell proliferation and viability
# Type: cell-based, human
# Settings: Example 2, 24 hours, Calcipotriol alone 10 μM, FIG. 2
# Method: The spontaneously immortalized, nontumorigenic skin keratinocyte cell line HaCaT was maintained in DMEM supplemented with 5% (v/v) FBS, 0.3 mg/ml glutamine and 0.1 mg/ml gentamicin at 37° C. with 5% CO2 in a humidified atmosphere. Subculture using trypsin-EDTA was performed every 3-4 days with split ratio of 1:3-1:4 to ensure actively proliferating cells.
# Cells were seeded in 96 well plates in fully supplemented medium at a density of 2500 cells per well. Following 72 hours of cultivation, the cells were starved of serum in 0.25% FBS/DMEM overnight to halt proliferation, synchronize the cells and to increase cell sensitivity to treatment. On day 4, the cells were treated with cPLA2a inhibitor Compound A and corticosteroid Betamethasone 17, 21-dipropionate (Sigma Aldrich # B1152) and left to incubate for […] in incubator at 37° C. with 5% CO2 in a humidified atmosphere before fluorescence was read at 544 nm excitation and 590 nm emission wavelength. […]
# Cells were seeded in 96 well plates in fully supplemented medium at a density of 2500 cells per well. […] On day 5, resazurin was added according to the manufacturer's instruction (RnD Systems, UK) and left to incubate for 2 hour incubator at 37° C. with 5% CO2 in a humidified atmosphere before fluorescence was read at 544 nm excitation and 590 nm emission wavelength. […]
smiles,measurement,value
"C=C1/C(=C\C=C2/CCC[C@]3(C)[C@@H]([C@H](C)/C=C/[C@@H](O)C4CC4)CC[C@@H]23)C[C@@H](O)C[C@@H]1O [Calcipotriol, Calcipotriol hydrate]",reduction of cell proliferation,20%
